Source: article PMC3441040 (ACS Medicinal Chemistry Letters, 2012)

Key:
purified murine COX-2 = target: T1, purified murine COX-2 (Mus musculus, UniProt Q05769); assay: Inhibition of mCOX-2 dependent oxygenation of 2-AG and AA in vitro; type: biochemical; settings: read-out: 2-AG IC50 (dash)
T1 sequence (Q05769 18-604): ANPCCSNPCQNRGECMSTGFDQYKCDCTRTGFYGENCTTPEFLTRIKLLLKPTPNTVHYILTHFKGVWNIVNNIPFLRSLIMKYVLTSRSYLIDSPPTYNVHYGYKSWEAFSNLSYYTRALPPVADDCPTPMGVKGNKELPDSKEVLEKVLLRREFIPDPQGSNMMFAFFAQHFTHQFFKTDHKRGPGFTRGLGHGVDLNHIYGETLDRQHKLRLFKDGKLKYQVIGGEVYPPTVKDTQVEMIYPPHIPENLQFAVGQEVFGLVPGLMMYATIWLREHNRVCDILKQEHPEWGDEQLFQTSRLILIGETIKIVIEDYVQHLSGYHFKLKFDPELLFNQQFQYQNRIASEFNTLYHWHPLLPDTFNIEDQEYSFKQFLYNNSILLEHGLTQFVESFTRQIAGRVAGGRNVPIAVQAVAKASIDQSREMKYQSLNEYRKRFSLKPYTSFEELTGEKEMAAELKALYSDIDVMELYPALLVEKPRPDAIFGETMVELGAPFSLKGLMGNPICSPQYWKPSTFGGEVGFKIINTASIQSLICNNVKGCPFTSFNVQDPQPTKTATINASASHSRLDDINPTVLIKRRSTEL

[1] = test system: COX-2 dependent oxygenation in RAW 264.7 macrophages; assay: Oxygenation of 2-AG and AA in LPS/interferon γ stimulated RAW 264.7 macrophages; type: cell-based; settings: Mus musculus, RAW264.7, read-out: AA inhibition in RAW 264.7 cells

With `COc1ccc2cc(C(C)(C)C(=O)O)ccc2c1` [4b] the inhibition at 10 µM (purified murine COX-2) was less than 50%.
`C[C@@H](C(=O)O)c1ccc(-c2ccccc2)c(F)c1` [7a, (R)-flurbiprofen] showed an inhibition at 50 µM [1] of 0%.
In the case of `CC(C)Cc1ccc(C(C)(C)C(=O)O)cc1` [4c], the inhibition at 10 µM (purified murine COX-2) is reported as less than 50%.
For `CC(C)Cc1ccc(C2(C(=O)O)CC2)cc1` [5c], the inhibition at 10 µM (purified murine COX-2) was less than 50%.
